Measured values published in patent publication US6750223B2, “4-Anilino[2,3-b]quinoline derivatives, their preparation processes and pharmaceutical compositions comprising the same” (Kaohsiung Medical University, priority 2002, dated 2004).
Read-outs that look alike come from different tables or passages of the source.

How the values were obtained:
[1] = system: prostate cancer (PC-3 and DU-145); test: NCI in vitro anticancer screen, prostate cancer subpanel; format: cell-based, human
[2] = system: NCI's full panel of 60 human cancer cell lines; test: NCI in vitro anticancer screen, full panel mean; format: cell-based
[3] = system: non-small cell lung cancer (A549/ATCC, EKVX, HOP-62, HOP-92, NCI-H226, NCI-H23, NCI-H322M, NCI-H460, and NCI-H522); test: NCI in vitro anticancer screen, non-small-cell lung cancer subpanel; format: cell-based, human
[4] = system: melanoma (LOX IMVI, MALME-3M, M14, SK-MEL-2, SK-MEL-28, SK-MEL-5, UACC-62, and UACC-257); test: NCI in vitro anticancer screen, melanoma subpanel; format: cell-based, human; conditions: read-out: GI50 Melanoma
[5] = system: breast cancer (MCF7, MCF7/ADR-RES, MDA-MB-231/ATCC, HS 578T, MDA-MB-435, MDA-N, and T-47D); test: NCI in vitro anticancer screen, breast cancer subpanel; format: cell-based, human; conditions: read-out: GI50 Breast cancer
[6] = system: CNS cancer (SF-268, SF-295, SF-539, SNB-19, SNB-75, and U251); test: NCI in vitro anticancer screen, CNS cancer subpanel; format: cell-based, human; conditions: read-out: GI50 CNS cancer
[7] = system: ovarian cancer (IGROV1, OVCAR-3, OVCAR-4, OVCAR-5, OVCAR-8, and SK-OV-3); test: NCI in vitro anticancer screen, ovarian cancer subpanel; format: cell-based, human; conditions: read-out: GI50 Ovarian cancer
[8] = system: leukemia (CCRF-CEM, HL-60 (TB), K-562, MOLT-4, RPMI-8226, and SR); test: NCI in vitro anticancer screen, leukemia subpanel; format: cell-based; conditions: read-out: GI50 Leukemia
[9] = system: renal cancer (786-0, A498, ACHN, CAKI-1, RXF 393, SN12C, TK-10, and UO-31); test: NCI in vitro anticancer screen, renal cancer subpanel; format: cell-based, human; conditions: read-out: GI50 Renal cancer
[10] = system: colon cancer (COLO 205, HCC-2998, HCT-116, HCT-15, HT29, KM12, and SW-620); test: NCI in vitro anticancer screen, colon cancer subpanel; format: cell-based, human; conditions: read-out: GI50 Colon cancer
[11] = system: NCI-H322M; test: NCI in vitro anticancer screen, NCI-H322M; format: cell-based, human; conditions: non-small-cell lung cancer cell line
[12] = system: A549/ATCC; test: NCI in vitro anticancer screen, A549/ATCC; format: cell-based, human; conditions: non-small-cell lung cancer cell line
[13] = system: NCI-H460; test: NCI in vitro anticancer screen, NCI-H460; format: cell-based, human
[14] = system: NCI-H522; test: NCI in vitro anticancer screen, NCI-H522; format: cell-based, human
[15] = system: NCI-H23; test: NCI in vitro anticancer screen, NCI-H23; format: cell-based, human; conditions: non-small-cell lung cancer cell line
[16] = system: NCI-H226; test: NCI in vitro anticancer screen, NCI-H226; format: cell-based, human; conditions: non-small-cell lung cancer cell line
[17] = system: HOP-92; test: NCI in vitro anticancer screen, HOP-92; format: cell-based, human
[18] = system: HOP-62; test: NCI in vitro anticancer screen, HOP-62; format: cell-based, human
[19] = system: EKVX; test: NCI in vitro anticancer screen, EKVX; format: cell-based, human; conditions: non-small-cell lung cancer cell line
[20] = Homo sapiens, DU-145, subpanel value, read-out: GI50 Prostate cancer
[21] = Homo sapiens, mean values over all cell lines tested, read-out: GI50 MG_MID
[22] = Homo sapiens, subpanel value, read-out: GI50 Non-small-cell lung cancer
[23] = Homo sapiens, subpanel value, concentration causing 50% cell growth inhibition
[24] = mean over all cell lines, read-out: mean GI50
[25] = non-small-cell lung cancer cell line

Compound	melting point	GI50 [1, 20]	GI50 [2, 21]	GI50 [3, 22]	GI50 ([4]; Homo sapiens, subpanel value)	GI50 ([5]; Homo sapiens, subpanel value)	GI50 ([6]; Homo sapiens, subpanel value)	GI50 ([7]; Homo sapiens, subpanel value)	GI50 [8, 23]	GI50 ([9]; Homo sapiens, subpanel value)	GI50 ([10]; Homo sapiens, subpanel value)	GI50 [2, 24]	further results
Nc1cc(CO)cc(Nc2c3ccccc3nc3occc23)c1 [Compound 4, 3-(Furo[2,3-b]quinolin-4-ylamino)-5-(hydroxymethyl)aniline]	236 to 237 °C	53600 nM	31100 nM	40.9 µM	38600 nM	23.9 µM	45.9 µM	47700 nM	23000 nM	37.7 µM	25200 nM	–	–
CC(=O)c1ccc(Nc2c3ccccc3nc3occc23)cc1 [Compound 5, 1-[4-(Furo[2,3-b]quinolin-4-ylamino)phenyl]ethanone]	220 to 221 °C	21 nM	25 nM	1.75 µM	18 nM	0.017 µM	0.016 µM	39 nM	< 10 nM	0.035 µM	11 nM	25 nM	GI50 ([11]; Homo sapiens, NCI-H322M): 0.68 µM; GI50 ([12]; Homo sapiens, A549): 570 nM; GI50 ([2]; Homo sapiens, all types of cancer cells tested except non-small-cell lung cancer, read-out: mean GI50 in each type of cancer cells): < 40 nM; GI50 ([3]; Homo sapiens, read-out: average GI50 non-small-cell lung cancer): 1.75 µM; GI50 ([13]; Homo sapiens, NCI-H460): 10 nM; GI50 ([14]; Homo sapiens, NCI-H522): < 10 nM; GI50 [14, 25]: < 10 nM; GI50 ([15]; Homo sapiens, NCI-H23): 37 nM; GI50 ([16]; Homo sapiens, NCI-H226): 0.31 µM; GI50 ([17]; Homo sapiens, HOP-92): 12.4 µM; GI50 ([18]; Homo sapiens, HOP-62): < 10 nM; GI50 [18, 25]: < 10 nM
C=C1CC(C)(c2ccc(Nc3c4ccccc4nc4occc34)cc2)OC1=O (stereo not shown) [Compound 6, 5-[4-(Furo[2,3-b]quinolin-4-ylamino)phenyl]-2,3,4,5-tetrahydro-5-methyl-3-methylidenefuran-2-one]	–	1320 nM	1770 nM	5.59 µM	1710 nM	3.27 µM	5.3 µM	1920 nM	900 nM	4.76 µM	1560 nM	–	GI50 ([2]; Homo sapiens, mean over all cell lines, read-out: mean GI50): 1770 nM
CC(=O)c1cccc(Nc2c3ccccc3nc3occc23)c1 [Compound 7, 1-[3-(Furo[2,3-b]quinolin-4-ylamino)phenyl]ethanone]	158 to 159 °C	12000 nM	5270 nM	14.5 µM	6090 nM	5.32 µM	7.63 µM	11300 nM	3220 nM	10.6 µM	5110 nM	5270 nM	–
C/C(=N\O)c1ccc(Nc2c3ccccc3nc3occc23)cc1 [Compound 8a, (E)-1-[4-(Furo[2.3-b]quinolin-4-ylamino)phenyl]ethanone oxime]	–	–	–	–	–	–	–	–	–	–	–	350 nM	GI50 [11]: 12.2 µM; GI50 [12]: 450 nM; GI50 ([1]; subpanel value, read-out: GI50 Prostate cancer): 530 nM; GI50 ([2]; mean values over all cell lines tested, read-out: GI50 MG_MID): 350 nM; GI50 ([3]; subpanel value, read-out: GI50 Non-small-cell lung cancer): 4.44 µM; GI50 ([4]; subpanel value): 950 nM; GI50 [13, 25]: 210 nM; GI50 ([5]; subpanel value): 0.42 µM; GI50 ([6]; subpanel value): 0.35 µM; GI50 ([7]; subpanel value): 530 nM; GI50 ([8]; subpanel value, concentration causing 50% cell growth inhibition): 140 nM; GI50 [19]: 4.03 µM; GI50 [14]: 74 nM; GI50 [14, 25]: 74 nM; GI50 [15]: 380 nM; GI50 [16]: 11.5 µM; GI50 ([9]; subpanel value): 2.68 µM; GI50 [17, 25]: 10.9 µM; GI50 ([10]; subpanel value): 170 nM; GI50 [18, 25]: 180 nM
C/C(=N\O)c1cccc(Nc2c3ccccc3nc3occc23)c1 [Compound 9a, (E)-1-[3-(Furo[2,3-b]quinolin-4-ylamino)phenyl]ethanone oxime]	248 to 249 °C	16200 nM	5600 nM	8.01 µM	4810 nM	3.62 µM	10.5 µM	13600 nM	3640 nM	9.9 µM	5350 nM	5600 nM	–
CO/N=C(\C)c1cccc(Nc2c3ccccc3nc3occc23)c1 [Compound 9b, (E)-1-[3-(Furo[2,3-b]quinolin-4-ylamino)phenyl]ethanone O-Methyloxime]	–	17800 nM	7560 nM	10.9 µM	8500 nM	8.68 µM	11.5 µM	11600 nM	4230 nM	12.6 µM	6670 nM	7560 nM	–
CC(=O)c1ccc(Nc2c3ccccc3nc3occ(Cl)c23)cc1 [Compound 13, 1-[4-(3-Chlorofuro[2,3-b]quinolin-4-ylamino)phenyl]ethanone]	245 to 247 °C	–	–	–	–	–	–	–	–	–	–	–	–
COc1cccc2c1C(=O)c1c(O)c3c(c(O)c1C2=O)C[C@@](O)(C(C)=O)C[C@@H]3O[C@H]1C[C@H](N)[C@H](O)[C@H](C)O1 [DAM, Daunomycin, reference compound]	–	–	–	–	–	–	–	–	–	–	–	–	GI50 ([1]; Homo sapiens, DU-145, read-out: GI50 Prostate cancer): 32 nM; GI50 ([2]; Homo sapiens, read-out: GI50 MG_MID): 44 nM; GI50 ([3]; Homo sapiens, read-out: GI50 Non-small-cell lung cancer): 0.043 µM; GI50 ([4]; Homo sapiens): 47 nM; GI50 ([5]; Homo sapiens): 0.11 µM; GI50 ([6]; Homo sapiens): 0.02 µM; GI50 ([7]; Homo sapiens): 62 nM; GI50 ([8]; Homo sapiens): < 10 nM; GI50 ([9]; Homo sapiens): 0.048 µM; GI50 ([10]; Homo sapiens): 83 nM
COc1cc(NS(C)(=O)=O)ccc1Nc1c2ccccc2nc2ccccc12 [m-AMSA, 4′-(9-acridinylamino)methanesulfonyl-m-anisidine, reference compound]	–	160 nM	440 nM	0.35 µM	580 nM	0.58 µM	0.42 µM	1050 nM	100 nM	0.87 µM	1070 nM	440 nM	–
